Here are results for 24 compounds from patent US5300298A, “Methods of treating obesity with purine related compounds” (The Pennsylvania Research Corporation, priority 1992, dated 1994).

This assay concerns warm-blooded animal. Description: Example II: tested as BW1433 was tested in Example I (obesity; ratio of muscle mass to fat). Type of assay: in vivo, rats. How it is done:
My initial studies were carried out following acute subcutaneous injections of the drug into male Sprague Dawley rats and into lean and into obese Zucker rats. Blood samples (100 microliter) were taken from the tail of the rats and measurements made of serum glycerol^6. Glycerol is an end product of lipolysis and thus an excellent indicator of the rate of whole body lipolysis. […] I discovered that in the absence of the Formula I compound tested, serum glycerol levels only differ slightly when comparing lean and obese animals. Since there is 3-4 times more fat in the obese animal this is good evidence for sluggish lipolysis per g of fat in the obese. The obese animals however seem to mobilize the fat at an earlier time after removal of their food supply (Table 1), since after 6 hours of fasting the obese serum glycerol levels are much higher than the lean.
Next, I studied the effect of chronic treatment with BW1433. For this purpose I employed 2 ml Alzet mini osmotic pumps. Each pump was loaded with 2 ml of a solution containing BW1433 or with vehicle (aqueous solution adjusted to pH II). The amount of BW1433 was adjusted so that the pump delivered either zero, 0.2 mg or 0.4 mg/Kg/hour to each animal. On the first day the animals had the pumps implanted and were given a priming (2 mg/Kg or 4 mg/Kg) dose of the antagonist. Blood was taken prior to surgery and six hours after the animals were removed from their food supply. On each subsequent day animals had free access to food and water overnight, then their food removed for six hours, and a blood sample taken.
In addition to taking blood samples for glycerol analysis, each animal was weighed every day for seven days. After seven days the animals were fasted overnight and a glucose tolerance test given The animals were then sacrificed and 1 ml blood sample taken for serum insulin and serum BW1433 determination drug levels. Insulin levels were measured with RIA kit (Diagnostic Products) and BW1433 levels were measured fluorometrically after HPLC separation at Burroughs Wellcome, Research Triangle Park, North Carolina. […] Nonetheless, when glucose tolerance curves were administered on day 7, drug-related differences could still be seen in all animals studied. […] This is illustrated more clearly in FIG. 4 where the area under the glucose tolerance curve is shown as a bar for each of the 6 groups of animals. […] FIG. 5 is a chart of the change in weight of treated and untreated lean and obese animals. […] The effect on weight change in each case was maximal at day 3, the day when the glycerol values peaked. Based on these remarkable results, the compounds of Formula I can be administered to obese warm-blooded animals as anti-obesity agents, or administered to farm animals to advantageously increase the ratio of muscle mass to fat therein.
Regarding `Cn1c(=O)c2nc(-c3ccc(/C=C/C(=O)O)cc3)[nH]c2n(C)c1=O` [compound 2, (E)-4-(1,2,3,6-tetrahydro-1,3-dimethyl-2,6-dioxo-9H-purin-8-yl)cinnamic acid], the “activity in method of treating obesity in a warm-blooded animal and in increasing the ratio of muscle mass to fat in farm animals” value was “active and effective”. Take `CCCCn1c(=O)n(C)c(=O)c2nc(-c3ccc(/C=C/C(=O)O)cc3)[nH]c21` [compound 15, (E)-4-(3-butyl-1,2,3,6-tetrahydro-1-methyl-2,6-dioxo-9H-purin-8-yl)cinnamicacid]: the “activity in method of treating obesity in a warm-blooded animal and in increasing the ratio of muscle mass to fat in farm animals” value is “active and effective”.

As to `Cn1c(=O)c2nc(-c3ccc(/C=C/C(=O)O)cc3)[nH]c2n(Cc2ccc(C#N)cc2)c1=O` [compound 20, (E)-4-[3-(4-cyanobenzyl)-1,2,3,6-tetrahydro-1-methyl-2,6-dioxo-9H-purin-8-yl]cinnamic acid], the “activity in method of treating obesity in a warm-blooded animal and in increasing the ratio of muscle mass to fat in farm animals” value is “active and effective”. As for `CC(C)Cn1c(=O)c2nc(-c3ccc(/C=C/C(=O)O)cc3)[nH]c2n(CC(C)C)c1=O` [compound 18, (E)-4-(1,2,3,6-tetrahydro-1,3-diisobutyl-2,6-dioxo-9H-purin-8-yl)cinnamic acid], the “activity in method of treating obesity in a warm-blooded animal and in increasing the ratio of muscle mass to fat in farm animals” value is “active and effective”.

For `Cn1c(=O)c2[nH]c(-c3ccc(/C=C/C(=O)O)cc3)nc2n(C)c1=S` [compound 19, (E)-4-(1,2,3,6-tetrahydro-1,3-dimethyl-6-oxo-2-thio-9H-purin-8-yl)cinnamicacid], the “activity in method of treating obesity in a warm-blooded animal and in increasing the ratio of muscle mass to fat in farm animals” value is “active and effective”. Next, `CC(C)Cn1c(=O)n(C)c(=O)c2nc(-c3ccc(/C=C/C(=O)O)cc3)[nH]c21` [compound 11, (E)-4-(1,2,3,6-tetrahydro-3-isobutyl-1-methyl-2,6-dioxo-9H-purin-8-yl)cinnamic acid]: “active and effective”; `CCCn1c(=O)n(C)c(=O)c2nc(-c3ccc(/C=C/C(=O)O)cc3)[nH]c21` [compound 10, (E)-4-(1,2,3,6-tetrahydro-1-methyl-2,6-dioxo-3-propyl-9H-purin-8-yl)cinnamic acid]: “active and effective”; `CCn1c(=O)c2nc(-c3ccc(/C=C/C(=O)O)cc3)[nH]c2n(CC)c1=O` [compound 4, (E)-4-(1,3-diethyl-1,2,3,6-tetrahydro-2,6-dioxo-9H-purin-8-yl)cinnamic acid]: “active and effective”.

Turning to `C=CCn1c(=O)c2nc(-c3ccc(/C=C/C(=O)O)cc3)[nH]c2n(CC=C)c1=O` [compound 5, (E)-4-(1,3-diallyl-1,2,3,6-tetrahydro-2,6-dioxo-9H-purin-8-yl)cinnamic acid], the “activity in method of treating obesity in a warm-blooded animal and in increasing the ratio of muscle mass to fat in farm animals” value is “active and effective”.

As for `CCn1c(=O)c2nc(-c3ccc(/C=C/C(=O)O)cc3)[nH]c2n(C)c1=O` [compound 12, (E)-4-(1-ethyl-1,2,3,6-tetrahydro-3-methyl-2,6-dioxo-9H-purin-8-yl)cinnamic acid], the “activity in method of treating obesity in a warm-blooded animal and in increasing the ratio of muscle mass to fat in farm animals” value is “active and effective”. `Cn1c(=O)c2nc(-c3ccc(/C=C/C(=O)O)cc3)[nH]c2n(Cc2ccccc2)c1=O` [compound 17, (E)-4-(3-benzyl-1,2,3,6-tetrahydro-1-methyl-2,6-dioxo-9H-purin-8-yl)cinnamic acid]: the “activity in method of treating obesity in a warm-blooded animal and in increasing the ratio of muscle mass to fat in farm animals” value was “active and effective”. As for `CCCn1c(=O)c2nc(-c3ccc(C#CC(=O)O)cc3)[nH]c2n(CCC)c1=O` [compound 22, 3-[4-(1,2,3,6-tetrahydro-2,6-dioxo-1,3-dipropyl-9H-purin-8-yl)phenyl]propiolic acid], the “activity in method of treating obesity in a warm-blooded animal and in increasing the ratio of muscle mass to fat in farm animals” value was “active and effective”.

As for `CCCCn1c(=O)c2nc(-c3ccc(/C=C/C(=O)O)cc3)[nH]c2n(C)c1=O` [compound 16, (E)-4-(1-butyl-1,2,3,6-tetrahydro-3-methyl-2,6-dioxo-9H-purin-8-yl)cinnamic acid], the “activity in method of treating obesity in a warm-blooded animal and in increasing the ratio of muscle mass to fat in farm animals” value was “active and effective”. Next, `CCCn1c(=O)c2nc(-c3ccc(/C=C/C(=O)O)cc3)[nH]c2n(C)c1=O` [compound 3, (E)-4-(1,2,3,6-tetrahydro-3-methyl-2,6-dioxo-1-propyl-9H-purin-8-yl)cinnamic acid]: “active and effective”.

`Cn1c(=O)c2nc(-c3ccc(/C=C/C(=O)O)cc3)[nH]c2n(Cc2cccc(C#N)c2)c1=O` [compound 21, (E)-4-[3-(3-cyanobenzyl)-1,2,3,6-tetrahydro-1-methyl-2,6-dioxo-9H-purin-8-yl]cinnamic acid]: the “activity in method of treating obesity in a warm-blooded animal and in increasing the ratio of muscle mass to fat in farm animals” value was “active and effective”. As for `CCn1c(=O)[nH]c(=O)c2nc(-c3ccc(/C=C/C(=O)O)cc3)[nH]c21` [compound 7, (E)-4-(3-ethyl-1,2,3,6-tetrahydro-2,6-dioxo-9H-purin-8-yl)cinnamic acid], the “activity in method of treating obesity in a warm-blooded animal and in increasing the ratio of muscle mass to fat in farm animals” value was “active and effective”. For `O=C(O)/C=C/c1ccc(-c2nc3c(=O)n(Cc4ccccc4)c(=O)n(Cc4ccccc4)c3[nH]2)cc1` [compound 14, (E)-4-(1,3-dibenzyl-1,2,3,6-tetrahydro-2,6-dioxo-9H-purin-8-yl)cinnamicacid], the “activity in method of treating obesity in a warm-blooded animal and in increasing the ratio of muscle mass to fat in farm animals” value was “active and effective”. Turning to `CCCn1c(=O)[nH]c(=O)c2nc(-c3ccc(/C=C/C(=O)O)cc3)[nH]c21` [compound 8, (E)-4-(1,2,3,6-tetrahydro-2,6-dioxo-3-propyl-9H-purin-8-yl)cinnamic acid], the “activity in method of treating obesity in a warm-blooded animal and in increasing the ratio of muscle mass to fat in farm animals” value was “active and effective”. On to `Cn1c(=O)n(Cc2ccc(C#N)cc2)c(=O)c2nc(-c3ccc(/C=C/C(=O)O)cc3)[nH]c21` [compound 23, (E)-4-[1-(4-cyanobenzyl)-1,2,3,6-tetrahydro-3-methyl-2,6-dioxo-9H-purin-8-yl]cinnamic acid], for which the “activity in method of treating obesity in a warm-blooded animal and in increasing the ratio of muscle mass to fat in farm animals” value was “active and effective”.

Take `CCCCn1c(=O)c2nc(-c3ccc(/C=C/C(=O)O)cc3)[nH]c2n(CCCC)c1=O` [compound 13, (E)-4-(1,3-dibutyl-1,2,3,6-tetrahydro-2,6-dioxo-9H-purin-8-yl)cinnamic acid]: the “activity in method of treating obesity in a warm-blooded animal and in increasing the ratio of muscle mass to fat in farm animals” value is “active and effective”. Take `Cn1c(=O)[nH]c(=O)c2nc(-c3ccc(/C=C/C(=O)O)cc3)[nH]c21` [compound 6, (E)-4-(1,2,3,6-tetrahydro-3-methyl-2,6-dioxo-9H-purin-8-yl)cinnamic acid]: the “activity in method of treating obesity in a warm-blooded animal and in increasing the ratio of muscle mass to fat in farm animals” value is “active and effective”. `CC(C)Cn1c(=O)[nH]c(=O)c2nc(-c3ccc(/C=C/C(=O)O)cc3)[nH]c21` [compound 9, (E)-4-(1,2,3,6-tetrahydro-3-isobutyl-2,6-dioxo-9H-purin-8-yl)cinnamic acid]: the “activity in method of treating obesity in a warm-blooded animal and in increasing the ratio of muscle mass to fat in farm animals” value is “active and effective”. As for `CCCn1c(=O)n(Cc2ccccc2)c(=O)c2nc(-c3ccc(/C=C/C(=O)O)cc3)[nH]c21` [compound 24, (E)-4-(1-benzyl-1,2,3,6-tetrahydro-2,6-dioxo-3-propyl-9H-purin-8-yl)cinnamic acid], the “activity in method of treating obesity in a warm-blooded animal and in increasing the ratio of muscle mass to fat in farm animals” value was “active and effective”. As to `CCCn1c(=O)c2nc(-c3ccc(/C=C/C(=O)O)cc3)[nH]c2n(Cc2ccccc2)c1=O` [compound 25, (E)-4-(3-benzyl-1,2,3,6-tetrahydro-2,6-dioxo-1-propyl-9H-purin-8-yl)cinnamic acid], the “activity in method of treating obesity in a warm-blooded animal and in increasing the ratio of muscle mass to fat in farm animals” value is “active and effective”.
